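Briefly, cells in 96-well plates were exposed to five compound concentrations for 48 h, and endpoints were estimated by linear interpolation. The concentration for full growth arrest is given as TGI.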
Legend:
Assay in all cases: DTP human tumour cell line panel, 48 h
SW-620 colon = test system: SW-620 colon
HOP-92 NSCLC = test system: HOP-92 NSCLC
OVCAR-8 ovarian = test system: OVCAR-8 ovarian
LOX IMVI melanoma = test system: LOX IMVI melanoma
DU-145 prostate = test system: DU-145 prostate
HT29 colon = test system: HT29 colon
OVCAR-3 ovarian = test system: OVCAR-3 ovarian
OVCAR-4 ovarian = test system: OVCAR-4 ovarian
SK-MEL-5 melanoma = test system: SK-MEL-5 melanoma
NCI/ADR-RES ovarian = test system: NCI/ADR-RES ovarian
SK-OV-3 ovarian = test system: SK-OV-3 ovarian
CCRF-CEM leukemia = test system: CCRF-CEM leukemia
NCI-H226 lung = test system: NCI-H226 lung
OVCAR-5 ovarian = test system: OVCAR-5 ovarian
MDA-MB-435 = test system: MDA-MB-435
SK-MEL-28 melanoma = test system: SK-MEL-28 melanoma
SNB-75 CNS = test system: SNB-75 CNS
SNB-19 CNS = test system: SNB-19 CNS
SN12C renal = test system: SN12C renal
MOLT-4 leukemia = test system: MOLT-4 leukemia
SR leukemia = test system: SR leukemia
IGROV1 ovarian = test system: IGROV1 ovarian
TK-10 renal = test system: TK-10 renal
A498 renal = test system: A498 renal
PC-3 prostate = test system: PC-3 prostate
SF-268 CNS = test system: SF-268 CNS
HCT-116 colon = test system: HCT-116 colon
KM12 colon = test system: KM12 colon
MALME-3M melanoma = test system: MALME-3M melanoma
ACHN renal = test system: ACHN renal
SK-MEL-2 melanoma = test system: SK-MEL-2 melanoma
HS 578T breast = test system: HS 578T breast
MDA-N = test system: MDA-N
U251 CNS = test system: U251 CNS
MCF7 breast = test system: MCF7 breast
786-0 renal = test system: 786-0 renal
UACC-257 melanoma = test system: UACC-257 melanoma
EKVX NSCLC = test system: EKVX NSCLC
UO-31 renal = test system: UO-31 renal
HOP-62 NSCLC = test system: HOP-62 NSCLC
COLO 205 colon = test system: COLO 205 colon
RPMI-8226 leukemia = test system: RPMI-8226 leukemia
UACC-62 melanoma = test system: UACC-62 melanoma
SF-295 CNS = test system: SF-295 CNS
HCT-15 colon = test system: HCT-15 colon
MDA-MB-231 breast = test system: MDA-MB-231 breast
NCI-H23 lung = test system: NCI-H23 lung
M14 melanoma = test system: M14 melanoma
A549 NSCLC = test system: A549 NSCLC
K-562 leukemia = test system: K-562 leukemia

Question: For `C=CCC(NCc1ccccc1)[C@H](OCc1ccccc1)[C@@H]1COC(C)(C)O1` (stereo not given in full), which TGI (SW-620 colon) is on record?
Answer: > 100 µM

Question: What about the TGI (HOP-92 NSCLC) of the same molecule?
Answer: 49 µM

Question: And the TGI (OVCAR-8 ovarian)?
Answer: > 100 µM

Question: What about the TGI (LOX IMVI melanoma) of the same molecule?
Answer: 72 µM

Question: And the TGI (DU-145 prostate)?
Answer: > 100 µM

Question: And the TGI (HT29 colon)?
Answer: 27.1 µM

Question: And the TGI (OVCAR-3 ovarian)?
Answer: > 100 µM

Question: And the TGI (OVCAR-4 ovarian)?
Answer: > 100 µM

Question: And the TGI (SK-MEL-5 melanoma)?
Answer: 55.2 µM

Question: And the TGI (NCI/ADR-RES ovarian)?
Answer: > 100 µM

Question: And the TGI (SK-OV-3 ovarian)?
Answer: > 100 µM

Question: What about the TGI (CCRF-CEM leukemia) of the same molecule?
Answer: 69.9 µM

Question: What about the TGI (NCI-H226 lung) of the same molecule?
Answer: 34.1 µM

Question: What about the TGI (OVCAR-5 ovarian) of the same molecule?
Answer: > 100 µM

Question: And the TGI (MDA-MB-435)?
Answer: > 100 µM

Question: And the TGI (SK-MEL-28 melanoma)?
Answer: > 100 µM

Question: What about the TGI (SNB-75 CNS) of the same molecule?
Answer: > 100 µM

Question: What about the TGI (SNB-19 CNS) of the same molecule?
Answer: > 100 µM

Question: And the TGI (SN12C renal)?
Answer: > 100 µM

Question: What about the TGI (MOLT-4 leukemia) of the same molecule?
Answer: 83.1 µM

Question: And the TGI (SR leukemia)?
Answer: 55 µM

Question: And the TGI (IGROV1 ovarian)?
Answer: > 100 µM

Question: What about the TGI (TK-10 renal) of the same molecule?
Answer: 70.8 µM

Question: And the TGI (A498 renal)?
Answer: > 100 µM

Question: What about the TGI (PC-3 prostate) of the same molecule?
Answer: > 100 µM

Question: And the TGI (SF-268 CNS)?
Answer: > 100 µM

Question: What about the TGI (HCT-116 colon) of the same molecule?
Answer: > 100 µM

Question: What about the TGI (KM12 colon) of the same molecule?
Answer: > 100 µM

Question: And the TGI (MALME-3M melanoma)?
Answer: 76.7 µM

Question: What about the TGI (ACHN renal) of the same molecule?
Answer: > 100 µM

Question: What about the TGI (SK-MEL-2 melanoma) of the same molecule?
Answer: 46 µM

Question: And the TGI (HS 578T breast)?
Answer: > 100 µM

Question: What about the TGI (MDA-N) of the same molecule?
Answer: > 100 µM

Question: And the TGI (U251 CNS)?
Answer: > 100 µM

Question: And the TGI (MCF7 breast)?
Answer: > 100 µM

Question: What about the TGI (786-0 renal) of the same molecule?
Answer: > 100 µM

Question: What about the TGI (UACC-257 melanoma) of the same molecule?
Answer: 58.1 µM

Question: What about the TGI (EKVX NSCLC) of the same molecule?
Answer: > 100 µM

Question: And the TGI (UO-31 renal)?
Answer: 83.1 µM

Question: And the TGI (HOP-62 NSCLC)?
Answer: > 100 µM

Question: What about the TGI (COLO 205 colon) of the same molecule?
Answer: 41.3 µM

Question: What about the TGI (RPMI-8226 leukemia) of the same molecule?
Answer: 44.4 µM

Question: And the TGI (UACC-62 melanoma)?
Answer: > 100 µM

Question: And the TGI (SF-295 CNS)?
Answer: 99.6 µM

Question: And the TGI (HCT-15 colon)?
Answer: 64.9 µM

Question: What about the TGI (MDA-MB-231 breast) of the same molecule?
Answer: > 100 µM

Question: And the TGI (NCI-H23 lung)?
Answer: > 100 µM

Question: What about the TGI (M14 melanoma) of the same molecule?
Answer: > 100 µM

Question: What about the TGI (A549 NSCLC) of the same molecule?
Answer: > 100 µM

Question: What about the TGI (K-562 leukemia) of the same molecule?
Answer: 56.4 µM

Source: PubChem BioAssay (NCI)
